Remaining activity data for one compound are collected here from US20080248511A1, “METHODS TO QUENCH LIGHT FROM OPTICAL REACTIONS” (priority 2007, published 2008).

The structures appear in SMILES notation. Like-named read-outs stand apart in the source and are kept apart here.

This experiment concerns the target firefly luciferase (Photinus pyralis, UniProt P08659). Put plainly: Detergent titration with Tergitol NP-9, digitonin or no lysing agent, firefly luciferase (Example 4). The class given is biochemical. The note with it: read-out: Relative Firefly Luc Intensity; for remaining activity at 0.0005 %: 0.0005% detergent; for remaining activity at 0.005 %: 0.0050% detergent; for remaining activity at 0.05 %: 0.0500% detergent.

Sequence of firefly luciferase (P08659 whole entry): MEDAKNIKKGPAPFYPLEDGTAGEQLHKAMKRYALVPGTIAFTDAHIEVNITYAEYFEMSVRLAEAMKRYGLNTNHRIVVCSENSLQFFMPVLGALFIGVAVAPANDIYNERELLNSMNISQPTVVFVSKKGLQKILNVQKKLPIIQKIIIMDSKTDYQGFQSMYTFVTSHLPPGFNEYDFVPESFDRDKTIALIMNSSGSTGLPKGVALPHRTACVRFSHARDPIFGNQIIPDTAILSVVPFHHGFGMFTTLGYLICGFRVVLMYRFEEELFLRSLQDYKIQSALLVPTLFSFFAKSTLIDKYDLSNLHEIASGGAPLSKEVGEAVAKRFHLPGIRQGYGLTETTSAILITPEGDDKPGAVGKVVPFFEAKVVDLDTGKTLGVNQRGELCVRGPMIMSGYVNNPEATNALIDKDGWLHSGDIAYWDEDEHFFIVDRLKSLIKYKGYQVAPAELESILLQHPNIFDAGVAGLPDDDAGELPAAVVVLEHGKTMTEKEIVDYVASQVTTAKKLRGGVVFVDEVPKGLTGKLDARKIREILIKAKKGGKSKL

Turning to `CCCCCCCCCCCC[N+](C)(C)Cc1ccccc1.[Br-]` [Benzyldimethyldodecylammonium bromide], the remaining activity at 0.0005 % runs as follows: (Dig) 111%; (Terg) 96%; (Water) 116%. Also, the remaining activity at 0.005 % runs as follows: (Dig) 139%; (Terg) 101%; (Water) 155%. The remaining activity at 0.05 % is, setting by setting: (Dig (20 μg/ml digitonin)) 37%; (Terg (0.5% Tergitol NP-9)) 50%; (Water (no lysing agent)) 79%.
